Reference: the supplement of paper PMC11061612

Experiments:
Carboplatin = compound: C1CC(C1)(C(=O)[O-])C(=O)[O-].N.N.[Pt+2] [Carboplatin]; details: max 10 µM
Summary of the method: (§1)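 Plates with 1536 wells received cancer cell lines in 7.5 μl of DMEM/F12 or RPMI containing 10% FBS. After 24 hours at 37°C and 5% CO2, cells were dosed for 72 hours with final DMSO typically 0.2%, and viability was read by CellTiter-Glo 2.0 luminescence scaled between blank-well and DMSO-well means. The single-agent IC50 was taken from a logistic fit of the dose responses made with a non-linear mixed effects model, that logistic curve having two parameters.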

AZD5363 = compound: C1CN(CCC1(C(=O)N[C@@H](CCO)C2=CC=C(C=C2)Cl)N)C3=NC=NC4=C3C=CN4 [AZD5363]; details: max 10 µM
Summary of the method: as §1

AZD1775 = compound: C=CCn1c(=O)c2cnc(Nc3ccc(N4CCN(C)CC4)cc3)nc2n1-c1cccc(C(C)(C)O)n1 [AZD1775]; details: max 3 µM
Summary of the method: as §1

Trametinib = compound: CC(=O)Nc1cccc(-n2c(=O)n(C3CC3)c(=O)c3c(Nc4ccc(I)cc4F)n(C)c(=O)c(C)c32)c1 [Trametinib]; details: max 1 µM
Summary of the method: as §1

Paclitaxel = compound: CC(=O)O[C@H]1C(=O)[C@@]2(C)[C@H]([C@H](OC(=O)c3ccccc3)[C@]3(O)C[C@H](OC(=O)[C@H](O)[C@@H](NC(=O)c4ccccc4)c4ccccc4)C(C)=C1C3(C)C)[C@]1(OC(C)=O)CO[C@@H]1C[C@@H]2O [Paclitaxel]; details: max 3 µM
Summary of the method: as §1

Palbociclib = compound: CC(=O)c1c(C)c2cnc(Nc3ccc(N4CCNCC4)cn3)nc2n(C2CCCC2)c1=O [Palbociclib]; details: max 10 µM
Summary of the method: as §1

AZD1390 = compound: CC(C)n1c(=O)n(C)c2cnc3cc(F)c(-c4ccc(OCCCN5CCCCC5)nc4)cc3c21 [AZD1390]; details: max 0.3 µM
Summary of the method: as §1

Venetoclax = compound: CC1(C)CCC(CN2CCN(c3ccc(C(=O)NS(=O)(=O)c4ccc(NCC5CCOCC5)c([N+](=O)[O-])c4)c(Oc4cnc5[nH]ccc5c4)c3)CC2)=C(c2ccc(Cl)cc2)C1 [Venetoclax]; details: max 1 µM
Summary of the method: as §1

Dasatinib = compound: CC1=C(C(=CC=C1)Cl)NC(=O)C2=CN=C(S2)NC3=CC(=NC(=N3)C)N4CCN(CC4)CCO [Dasatinib]; details: max 2 µM
Summary of the method: as §1

SG3199 = compound: CC1=CN2[C@@H](C1)C=NC3=CC(=C(C=C3C2=O)OC)OCCCCCOC4=C(C=C5C(=C4)N=C[C@@H]6CC(=CN6C5=O)C)OC [SG3199]; details: max 0.001 µM
Summary of the method: as §1

AZD2811 = compound: CCN(CCO)CCCOc1ccc2c(Nc3cc(CC(=O)Nc4cccc(F)c4)[nH]n3)ncnc2c1 [AZD2811]; details: max 1 µM
Summary of the method: as §1

SN-38 = compound: CCc1c2c(nc3ccc(O)cc13)-c1cc3c(c(=O)n1C2)COC(=O)[C@]3(O)CC [SN-38]; details: max 0.3 µM
Summary of the method: as §1

AZD0156 = compound: CN(C)CCCOc1ccc(-c2ccc3ncc4c(c3c2)n(C2CCOCC2)c(=O)n4C)cn1 [AZD0156]; details: max 3 µM
Summary of the method: as §1

AZD4320 = compound: CN(CC[C@H](CSC1=CC=CC=C1)NC2=C(C=C(C=C2)S(=O)(=O)NC(=O)C3=CC=C(C=C3)N4CCC(CC4)[C@H](C5=CC=CC=C5C6=CC=C(C=C6)Cl)O)S(=O)(=O)C(F)(F)F)CCO [AZD4320]; details: max 1 µM
Summary of the method: as §1

Alisertib = compound: COc1cc(Nc2ncc3c(n2)-c2ccc(Cl)cc2C(c2c(F)cccc2OC)=NC3)ccc1C(=O)O [Alisertib]; details: max 10 µM
Summary of the method: as §1

Etoposide = compound: COc1cc([C@@H]2c3cc4c(cc3[C@@H](O[C@@H]3O[C@@H]5CO[C@@H](C)O[C@H]5[C@H](O)[C@H]3O)[C@H]3COC(=O)[C@H]23)OCO4)cc(OC)c1O [Etoposide]; details: max 10 µM
Summary of the method: as §1

Gefitinib = compound: COc1cc2ncnc(Nc3ccc(F)c(Cl)c3)c2cc1OCCCN1CCOCC1 [Gefitinib]; details: max 10 µM
Summary of the method: as §1

Prexasertib = compound: COc1cccc(OCCCN)c1-c1cc(Nc2cnc(C#N)cn2)n[nH]1 [Prexasertib]; details: max 1 µM
Summary of the method: as §1

Doxorubicin = compound: COc1cccc2c1C(=O)c1c(O)c3c(c(O)c1C2=O)C[C@@](O)(C(=O)CO)C[C@@H]3O[C@H]1C[C@H](N)[C@H](O)[C@H](C)O1 [Doxorubicin]; details: max 1 µM
Summary of the method: as §1

AZD5153 = compound: COc1nnc2ccc(N3CCC(c4ccc(OCCN5CCN(C)C(=O)[C@H]5C)cc4)CC3)nn12 [AZD5153]; details: max 1 µM
Summary of the method: as §1

Lapatinib = compound: CS(=O)(=O)CCNCc1ccc(-c2ccc3ncnc(Nc4ccc(OCc5cccc(F)c5)c(Cl)c4)c3c2)o1 [Lapatinib]; details: max 10 µM
Summary of the method: as §1

AZD8186 = compound: C[C@@H](Nc1cc(F)cc(F)c1)c1cc(C(=O)N(C)C)cc2c(=O)cc(N3CCOCC3)oc12 [AZD8186]; details: max 10 µM
Summary of the method: as §1

Crizotinib = compound: C[C@@H](Oc1cc(-c2cnn(C3CCNCC3)c2)cnc1N)c1c(Cl)ccc(F)c1Cl [Crizotinib]; details: max 10 µM
Summary of the method: as §1

Savolitinib = compound: C[C@@H](c1ccc2nccn2c1)n1nnc2ncc(-c3cnn(C)c3)nc21 [Savolitinib]; details: max 1 µM
Summary of the method: as §1

AZD6738 = compound: C[C@@H]1COCCN1C2=NC(=NC(=C2)C3(CC3)[S@](=N)(=O)C)C4=C5C=CNC5=NC=C4 [AZD6738]; details: max 10 µM
Summary of the method: as §1

AZD5991 = compound: Cc1c2c(nn1C)CSCc1cc(n(C)n1)CSc1cc(c3ccccc3c1)OCCCc1c(C(=O)O)n(C)c3c-2c(Cl)ccc13 [AZD5991]; details: max 1 µM
Summary of the method: as §1

AZD7648 = compound: Cc1cc2ncnn2cc1Nc1ncc2c(n1)n(C1CCOCC1)c(=O)n2C [AZD7648]; details: max 10 µM
Summary of the method: as §1

Taselisib = compound: Cc1nc(-c2cn3c(n2)-c2ccc(-c4cnn(C(C)(C)C(N)=O)c4)cc2OCC3)n(C(C)C)n1 [Taselisib]; details: max 10 µM
Summary of the method: as §1

Selumetinib = compound: Cn1cnc2c(F)c(Nc3ccc(Br)cc3Cl)c(C(=O)NOCCO)cc21 [Selumetinib]; details: max 10 µM
Summary of the method: as §1

SRA737 = compound: N#Cc1cnc(Nc2cc(NC[C@H]3CNCCO3)c(C(F)(F)F)cn2)cn1 [SRA737]; details: max 10 µM
Summary of the method: as §1

MK-2206 = compound: NC1(c2ccc(-c3nc4ccn5c(=O)[nH]nc5c4cc3-c3ccccc3)cc2)CCC1 [MK-2206]; details: max 10 µM
Summary of the method: as §1

Gemcitabine = compound: Nc1ccn([C@@H]2O[C@H](CO)[C@@H](O)C2(F)F)c(=O)n1 [Gemcitabine]; details: max 0.3 µM
Summary of the method: as §1

[1] = compound: O=C(Nc1ccc2[nH]nc(-c3ccncc3)c2c1)[C@@H]1CCN(CC(=O)N2CCN(c3ccc(-c4ncccn4)cc3)CC2)C1; details: max 5 µM
Summary of the method: as §1

Olaparib = compound: O=C(c1cc(Cc2n[nH]c(=O)c3ccccc23)ccc1F)N1CCN(C(=O)C2CC2)CC1 [Olaparib]; details: max 10 µM
Summary of the method: as §1

5-Fluorouracil = compound: O=c1[nH]cc(F)c(=O)[nH]1 [5-Fluorouracil]; details: max 20 µM
Summary of the method: as §1

Row | Cell Line | IC50, cell viability 72 h (Carboplatin) [nM] | IC50, cell viability 72 h (AZD5363) [nM] | IC50, cell viability 72 h (AZD1775) [nM] | IC50, cell viability 72 h (Trametinib) [nM] | IC50, cell viability 72 h (Paclitaxel) [nM] | IC50, cell viability 72 h (Palbociclib) [nM] | IC50, cell viability 72 h (AZD1390) [nM] | IC50, cell viability 72 h (Venetoclax) [nM] | IC50, cell viability 72 h (Dasatinib) [nM] | IC50, cell viability 72 h (SG3199) [nM] | IC50, cell viability 72 h (AZD2811) [nM] | IC50, cell viability 72 h (SN-38) [nM] | IC50, cell viability 72 h (AZD0156) [nM] | IC50, cell viability 72 h (AZD4320) [nM] | IC50, cell viability 72 h (Alisertib) [nM] | IC50, cell viability 72 h (Etoposide) [nM] | IC50, cell viability 72 h (Gefitinib) [nM] | IC50, cell viability 72 h (Prexasertib) [nM] | IC50, cell viability 72 h (Doxorubicin) [nM] | IC50, cell viability 72 h (AZD5153) [nM] | IC50, cell viability 72 h (Lapatinib) [nM] | IC50, cell viability 72 h (AZD8186) [nM] | IC50, cell viability 72 h (Crizotinib) [nM] | IC50, cell viability 72 h (Savolitinib) [nM] | IC50, cell viability 72 h (AZD6738) [nM] | IC50, cell viability 72 h (AZD5991) [nM] | IC50, cell viability 72 h (AZD7648) [nM] | IC50, cell viability 72 h (Taselisib) [nM] | IC50, cell viability 72 h (Selumetinib) [nM] | IC50, cell viability 72 h (SRA737) [nM] | IC50, cell viability 72 h (MK-2206) [nM] | IC50, cell viability 72 h (Gemcitabine) [nM] | IC50, cell viability 72 h [1] [nM] | IC50, cell viability 72 h (Olaparib) [nM] | IC50, cell viability 72 h (5-Fluorouracil) [nM]
1 | KYAE-1 (Esophageal Adenocarcinoma) | > 10000 | > 10000 | > 3000 | > 1000 | > 3000 | > 10000 | > 300 | > 1000 | > 2000 | > 1 | > 1000 | > 300 | > 3000 | > 1000 | > 10000 | > 10000 | 4580 | 829 | > 1000 | > 1000 | 3340 | > 10000 | > 10000 | > 1000 | > 10000 | > 1000 | > 10000 | 1880 | > 10000 | > 10000 | > 10000 | > 300 | > 5000 | > 10000 | > 20000
2 | LNZTA3WT4 (Low Grade Glioma) | > 10000 | > 10000 | 624 | > 1000 | 141 | > 10000 | > 300 | > 1000 | > 2000 | > 1 | > 1000 | 269 | > 3000 | > 1000 | > 10000 | > 10000 | > 10000 | 18.7 | > 1000 | > 1000 | > 10000 | > 10000 | > 10000 | > 1000 | 4500 | > 1000 | > 10000 | > 10000 | > 10000 | 4630 | > 10000 | 99.7 | > 5000 | > 10000 | > 20000
3 | LOXIMVI (Melanoma) | > 10000 | > 10000 | 1370 | 17.8 | 26.8 | 9910 | > 300 | > 1000 | 135 | > 1 | > 1000 | 28.9 | > 3000 | > 1000 | 5350 | > 10000 | > 10000 | 89.6 | 294 | 111 | > 10000 | > 10000 | 6350 | > 1000 | 3270 | > 1000 | > 10000 | 2170 | 1500 | > 10000 | > 10000 | 58.9 | 145 | > 10000 | > 20000
4 | MPP-89 (Mesothelioma) | > 10000 | > 10000 | 1550 | > 1000 | 842 | > 10000 | > 300 | > 1000 | 558 | > 1 | > 1000 | 172 | > 3000 | > 1000 | 9370 | > 10000 | > 10000 | 67.2 | > 1000 | > 1000 | > 10000 | > 10000 | > 10000 | > 1000 | > 10000 | > 1000 | > 10000 | > 10000 | > 10000 | > 10000 | > 10000 | > 300 | > 5000 | > 10000 | > 20000
5 | NCI-H524 (Small Cell Lung Carcinoma) | > 10000 | > 10000 | 974 | > 1000 | 3.26 | > 10000 | > 300 | > 1000 | > 2000 | > 1 | 22.3 | 133 | > 3000 | 415 | 30.5 | > 10000 | > 10000 | 23.6 | > 1000 | 278 | > 10000 | > 10000 | 2550 | > 1000 | 4370 | > 1000 | > 10000 | 8080 | > 10000 | > 10000 | > 10000 | 189 | > 5000 | > 10000 | > 20000
